Test results taken from US10995091B2 (Proximagen, LLC, priority 2010, dated 2021).
Where a name gives a salt, the structure may show the parent alone.

What follows are molecules tested against T1, Human CXCR4 transfected HEK293 cells (Homo sapiens, UniProt P61073) (assay: CXCR4 functional calcium assay (calcium flux FLIPR, antagonism of SDF1 response)). Details: CXCR4 functional activity, antagonism of SDF1 (EC50 concentration), read-out: CXCR4 fKi.
T1 construct: expressed in transfected cells; host or cells: HEK293
T1 sequence (P61073 whole entry): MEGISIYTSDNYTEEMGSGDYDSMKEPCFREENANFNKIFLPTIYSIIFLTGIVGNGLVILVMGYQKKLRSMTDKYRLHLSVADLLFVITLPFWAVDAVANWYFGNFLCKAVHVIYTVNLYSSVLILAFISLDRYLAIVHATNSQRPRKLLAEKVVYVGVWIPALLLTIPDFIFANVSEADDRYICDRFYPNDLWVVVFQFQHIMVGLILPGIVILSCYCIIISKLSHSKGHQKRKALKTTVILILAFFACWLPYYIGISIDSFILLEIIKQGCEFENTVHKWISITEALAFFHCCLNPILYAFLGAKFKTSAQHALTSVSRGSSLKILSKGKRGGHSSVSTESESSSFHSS
Assay type: cell-based
Protocol: The functional activity of test compounds was routinely tested by measuring the ability of compounds to antagonize CXCR4 activity in a dose dependent manner, using a calcium flux Fluorescent Imaging Plate Reader FLIPR assay.
Human CXCR4 transfected HEK293 cells were cultured in Dulbecco's modified Eagles medium containing 4.5 g/L glucose, L-glutamine, pyruvate, 50 µg/mL Geneticin and 250 µg/mL hygromycin B and maintained at 37° C. in a humidified, 5% CO2 controlled atmosphere. Subcultivations were performed every 2-3 d.
At confluence the cells were lifted using Ca^2+ and Mg^2+ free PBS/0.02% (w/v) EDTA, spun at 1000 rpm for 3 min and resuspended at 2.5×10^5 cells/mL. Cells were plated into a 384 well, poly-d-lysine coated, black with clear bottomed plate (Becton Dickinson) at 7500 cells/well. The plates were incubated overnight at 37° C. under 5% CO2. On the day of the experiment the cells were washed with incubation Buffer (HBSS containing 2.5 mM probenecid, 0.1% w/v BSA and 10 mM HEPES, pH 7.4 at 37° C.). After washing, the cells were loaded with Fluo-4 AM dye (Molecular probes) at 2 µM containing 0.48 µg/mL pluronic acid for 60 min at 37° C. under 5% CO2. After thorough washing with incubation buffer the cells were preincubated for 10 min at 37° C. before use.
A combined agonist/antagonist protocol was used to measure changes in intracellular calcium concentration. Compound (antagonist) was added to the cell plate using a Fluorometric Imaging Plate Reader (FLIPR) (Molecular Devices, Sunnyvale, Calif., USA). Basal fluorescence was recorded every second for 10 seconds prior to compound addition (10 μl) and fluorescence recorded every second for 1 min then every 6 seconds for a further 1 min. SDF1[…] (EC50 concentration) was then added using the FLIPR and fluorescence recorded as described above. Curve-fitting and parameter estimation were carried out using GraphPad Prism 4.0 (GraphPad Software Inc., San Diego, Calif.).

Row | Ki [nM] | Compound
1 | 100 to 500 | CC(C)N1CCC(N2CCCN(c3cccc(C(=O)NCC4CCOCC4)n3)CC2)CC1 [Example 1, N-(Oxan-4-ylmethyl)-6-{4-[1-(propan-2-yl)piperidin-4-yl]-1,4-diazepan-1-yl}pyridine-2-carboxamide]
2 | 20 to 100 | COc1ccc(NC(=O)c2cccc(N3CCCN(C4CCN(C(C)C)CC4)CC3)n2)cc1 [Example 26, N-(4-Methoxyphenyl)-6-{4-[1-(propan-2-yl)piperidin-4-yl]-1,4-diazepan-1-yl}pyridine-2-carboxamide]
3 | 100 to 500 | CC(C)N1CCC(N2CCCN(c3cccc(-c4nc5ccccc5s4)n3)CC2)CC1 [Example 151, 2-(6-{4-[1-(Propan-2-yl)piperidin-4-yl]-1,4-diazepan-1-yl}pyridine-2-yl)-1,3-benzothiazole]
4 | 20 to 100 | CC(C)N1CCC(N2CCCN(c3cccc(-c4cc5ccccc5[nH]4)n3)CC2)CC1 [Example 100, 2-(6-{4-[1-(Propan-2-yl)piperidin-4-yl]-1,4-diazepan-1-yl}pyridine-2-yl)-1H-indole]
5 | 500 to 1000 | CC(C)N1CCC(N2CCCN(c3cccc(-c4c[nH]c5ccccc45)n3)CC2)CC1 [Example 102, 3-(6-{4-[1-(Propan-2-yl)piperidin-4-yl]-1,4-diazepan-1-yl}pyridine-2-yl)-1H-indole]
6 | 20 to 100 | Cc1ccc2nc(-c3cccc(N4CCCN(C5CCN(C(C)C)CC5)CC4)n3)[nH]c2c1 [Example 148, 6-Methyl-2-(6-{4-[1-(propan-2-yl)piperidin-4-yl]-1,4-diazepan-1-yl}pyridine-2-yl)-1H-1,3-benzodiazole]
7 | 20 to 100 | Cc1cc(NC(=O)c2cccc(N3CCCN(C4CCN(Cc5ccccc5Cl)CC4)CC3)n2)cc(C)n1 [Example 85, 6-(4-{1-[(2-Chlorophenyl)methyl]piperidin-4-yl}-1,4-diazepan-1-yl)-N-(2,6-dimethylpyridin-4-yl)pyridine-2-carboxamide]
8 | 20 to 100 | O=C(NCC1CC1)c1cccc(N2CCCN(C3CCN(C4CCCC4F)CC3)CC2)n1 (centres unmarked) [Example 73, N-(Cyclopropylmethyl)-6-{4-[1-(2-fluorocyclopentyl)piperidin-4-yl]-1,4-diazepan-1-yl}pyridine-2-carboxamide]
9 | 100 to 500 | CCc1nc(-c2cccc(N3CCCN(C4CCN(C(C)C)CC4)CC3)n2)no1 [Example 155, 1-[6-(5-Ethyl-1,2,4-oxadiazol-3-yl)pyridine-2-yl]-4-[1-(propan-2-yl)piperidin-4-yl]-1,4-diazepane trihydrochloride]
10 | 20 to 100 | [2H]C1([2H])CCN(c2cccc(C(=O)Nc3ccncc3)n2)CC(C)N1C1CCN([C@@H](C)C(F)(F)F)CC1 (stereo partly drawn) [Example 196, 6-(5,5-Dihydrogenio-3-methyl-4-{1-[(2S)-1,1,1-trifluoropropan-2-yl]piperidin-4-yl}-1,4-diazepan-1-yl)-N-(pyridin-4-yl)pyridine-2-carboxamide]
11 | 100 to 500 | CC(C)N1CCC(NCCCNc2cccc(C(=O)Nc3ccncc3)n2)CC1 [Example 239, 6-[(3-{[1-(Propan-2-yl)piperidin-4-yl]amino}propyl)amino]-N-(pyridin-4-yl)pyridine-2-carboxamide]
12 | 20 to 100 | COc1ccc2nc(-c3cccc(N4CCCN(C5CCN(C(C)C)CC5)CC4)n3)[nH]c2c1 [Example 150, 6-Methoxy-2-(6-{4-[1-(propan-2-yl)piperidin-4-yl]-1,4-diazepan-1-yl}pyridine-2-yl)-1H-1,3-benzodiazole]
13 | 500 to 1000 | CC(C)N1CCC(N2CCCN(c3cccc(-c4nc(C5CC5)no4)n3)CC2)CC1 [Example 169, 1-[6-(3-Cyclopropyl-1,2,4-oxadiazol-5-yl)pyridin-2-yl]-4-[1-(propan-2-yl)piperidin-4-yl]-1,4-diazepane]
14 | 100 to 500 | C[C@H](N1CCC(N2CCCN(c3cccc(C(=O)NCC4CC4)n3)CC2)CC1)C(F)(F)F [Example 69, N-(Cyclopropylmethyl)-6-(4-{1-[(2S)-1,1,1-trifluoropropan-2-yl]piperidin-4-yl}-1,4-diazepan-1-yl)pyridine-2-carboxamide]
15 | < 20 | C[C@@H](N1CCC(N2CCCN(c3cccc(C(=O)Nc4ccncc4)n3)CC2)CC1)C(F)(F)F [Example 81, N-(Pyridin-4-yl)-6-(4-{1-[(2R)-1,1,1-trifluoropropan-2-yl]piperidin-4-yl}-1,4-diazepan-1-yl)pyridine-2-carboxamide]
16 | 100 to 500 | O=C(NCC1CC1)c1cccc(N2CCCN(C3CCN(C4CCOC4)CC3)CC2)n1 (centres unmarked) [Example 128, N-(Cyclopropylmethyl)-6-{4-[1-(oxolan-3-yl)piperidin-4-yl]-1,4-diazepan-1-yl}pyridine-2-carboxamide]
17 | 100 to 500 | CC(C)N1CCC(N2CCCN(c3cccc(C(=O)N4CCc5ccccc54)n3)CC2)CC1 [Example 21, 1-[(6-{4-[1-(Propan-2-yl)piperidin-4-yl]-1,4-diazepan-1-yl}pyridin-2-yl)carbonyl]-2,3-dihydro-1H-indole]
18 | < 20 | CCCc1[nH]c(-c2cccc(N3CCCN(C4CCN(C(C)C)CC4)CC3)n2)nc1C [Example 123, 1-[6-(5-Methyl-4-propyl-1H-imidazol-2-yl)pyridine-2-yl]-4-[1-(propan-2-yl)piperidin-4-yl]-1,4-diazepane]
19 | 100 to 500 | CC(C)N1CCC(N2CCCN(c3cccc(C(=O)NC4CC4)n3)CC2)CC1 [Example 11, N-Cyclopropyl-6-{4-[1-(propan-2-yl)piperidin-4-yl]-1,4-diazepan-1-yl}pyridine-2-carboxamide]
20 | 20 to 100 | CCCc1nc(-c2cccc(N3CCCN(C4CCN(C(C)C)CC4)CC3)n2)no1 [Example 156, 1-[1-(Propan-2-yl)piperidin-4-yl]-4-[6-(5-propyl-1,2,4-oxadiazol-3-yl)pyridine-2-yl]-1,4-diazepane]
21 | 100 to 500 | CC(C)N1CCCC(N(C)CCN(C)c2cccc(C(=O)Nc3ccncc3)n2)CC1 (centres unmarked) [Example 238, 6-[Methyl(2-{methyl[1-(propan-2-yl)azepan-4-yl]amino}ethyl)amino]-N-(pyridin-4-yl)pyridine-2-carboxamide]
22 | 100 to 500 | CC(C)N1CCC(N2CCCN(c3cccc(C(=O)NCc4nccn4C)n3)CC2)CC1 [Example 37, N-[(1-Methyl-1H-imidazol-2-yl)methyl]-6-{4-[1-(propan-2-yl)piperidin-4-yl]-1,4-diazepan-1-yl}pyridine-2-carboxamide]
23 | 20 to 100 | CC(C)N1CCC(N2CCN(c3cccc(C(=O)NCC4CC4)n3)CCC2C)CC1 (centres unmarked) [Example 184, N-(Cyclopropylmethyl)-6-{5-methyl-4-[1-(propan-2-yl)piperidin-4-yl]-1,4-diazepan-1-yl}pyridine-2-carboxamide]
24 | 100 to 500 | CC(C)N1CCC(N2CCCN(c3cccc(-c4noc(-c5ccccn5)n4)n3)CC2)CC1 [Example 165, 1-[1-(Propan-2-yl)piperidin-4-yl]-4-{6-[5-(pyridine-2-yl)-1,2,4-oxadiazol-3-yl]pyridine-2-yl}-1,4-diazepane tetrahydrochloride]
25 | < 20 | CC(C)N1CCC(N2CCCN(c3cccc(-c4ncc(C5CC5)[nH]4)n3)CC2)CC1 [Example 111, 1-[6-(4-Cyclopropyl-1H-imidazol-2-yl)pyridine-2-yl]-4-[1-(propan-2-yl)piperidin-4-yl]-1,4-diazepane]

Row | Compound | Ki [nM]
26 | O=C(Nc1ccncc1)c1cccc(N2CC3CCC(C2)N(C2CCN(Cc4ccccc4Cl)CC2)C3)n1 (centres unmarked) [Example 208, 6-(6-{1-[(2-Chlorophenyl)methyl]piperidin-4-yl}-3,6-diazabicyclo[3.2.2]nonan-3-yl)-N-(pyridin-4-yl)pyridine-2-carboxamide] | 100 to 500
